Experimental data published in paper PMC3914206.

Target: T1, panel of 442 kinases (Homo sapiens, UniProt Q9NRM7)
T1 construct: purchased KINOMEscan
T1 sequence (Q9NRM7 1-1088): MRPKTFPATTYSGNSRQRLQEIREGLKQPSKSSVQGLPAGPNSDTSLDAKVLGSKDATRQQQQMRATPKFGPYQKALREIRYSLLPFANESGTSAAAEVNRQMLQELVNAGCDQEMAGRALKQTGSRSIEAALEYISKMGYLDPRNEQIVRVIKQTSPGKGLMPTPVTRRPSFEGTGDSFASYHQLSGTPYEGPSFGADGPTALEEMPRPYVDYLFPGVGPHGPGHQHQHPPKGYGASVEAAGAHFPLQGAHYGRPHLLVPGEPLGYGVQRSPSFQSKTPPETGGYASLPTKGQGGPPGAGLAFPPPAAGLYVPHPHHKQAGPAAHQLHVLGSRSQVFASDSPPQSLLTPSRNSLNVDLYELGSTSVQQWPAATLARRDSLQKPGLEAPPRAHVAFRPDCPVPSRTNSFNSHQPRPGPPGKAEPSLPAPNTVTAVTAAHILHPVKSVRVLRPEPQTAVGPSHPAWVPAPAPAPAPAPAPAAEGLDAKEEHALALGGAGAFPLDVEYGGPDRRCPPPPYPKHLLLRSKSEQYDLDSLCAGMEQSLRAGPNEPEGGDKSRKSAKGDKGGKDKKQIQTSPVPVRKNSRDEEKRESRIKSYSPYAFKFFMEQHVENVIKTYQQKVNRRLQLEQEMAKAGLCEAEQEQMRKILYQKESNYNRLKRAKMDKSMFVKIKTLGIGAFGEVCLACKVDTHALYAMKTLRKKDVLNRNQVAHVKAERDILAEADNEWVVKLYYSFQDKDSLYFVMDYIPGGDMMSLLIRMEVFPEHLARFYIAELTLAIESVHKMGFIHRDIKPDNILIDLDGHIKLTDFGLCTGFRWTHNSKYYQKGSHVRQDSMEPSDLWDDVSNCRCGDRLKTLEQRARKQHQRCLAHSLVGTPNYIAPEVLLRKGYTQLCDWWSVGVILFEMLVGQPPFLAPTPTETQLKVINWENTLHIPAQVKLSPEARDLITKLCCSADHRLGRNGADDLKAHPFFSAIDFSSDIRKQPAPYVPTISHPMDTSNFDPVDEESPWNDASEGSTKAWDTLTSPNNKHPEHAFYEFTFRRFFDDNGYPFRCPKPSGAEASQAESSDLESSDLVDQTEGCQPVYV
Assay type: binding
Details: Compound Concentration 10 µM
Excerpt: We assessed the selectivity of members of this scaffold using the KINOMEscan methodology across a near comprehensive panel of 442 kinases [[18,27]].

SMILES | KINOMEscan: LATS2
COc1cc(C(=O)N2CCC(N3CCN(C)CC3)CC2)ccc1Nc1ncc2c(n1)N(C)c1ccccc1C(=O)N2C [15 (LRRK2-IN-1)] | 95
COc1cc(C(=O)N2CCC(N3CCN(C)CC3)CC2)ccc1Nc1ncc2c(n1)N(C1CCCC1)c1ccccc1C(=O)N2C [Compound 25, 11-cyclopentyl-2-((2-methoxy-4-(4-(4-methylpiperazin-1-yl)piperidine-1-carbonyl)phenyl)amino)-5-methyl-5H-benzo[e]pyrimido[5,4-b][1,4]diazepin-6(11H)-one] | 92
CCOc1cc(C(=O)N2CCC(N3CCN(C)CC3)CC2)ccc1Nc1ncc2c(n1)N(C1CCCC1)c1ccccc1C(=O)N2C [Compound 26] | 93
